Laboratory results as given in patent publication US8367316B2, “Human gastrointestinal stem cell-derived primary intestinal epithelial cell system and methods of use thereof” (AlfaGene Bioscience, Inc., priority 2009, dated 2013).

Key:
Format in all cases: cell-based, human
[1] = system: hGISC derived primary ECs; assay: Nitric oxide production after immunostimulation, Griess reaction assay; details: agent alone; LPS (1 μm/ml), IFN-γ (200 u/ml); 24 hours; culture supernatants
From the text: (§1) Therefore, to gain insight about NO production regulation by intestinal EC, the effects of innate (LPS) and adaptive (IFN-γ) immunostimulatory agents on embodiments of the hGISC cell system derived non-transformed primary epithelial cells (EC) were studied and compared to a colonic adenocarcinoma EC line HT29.
[…] Cell free culture supernatants were collected and analyzed for NO content using a Griess Reaction kit (e.g., Griess Reagent System, Part #TB229) (PROMEGA, Madison, Wis.) in accordance with the manufacturer's instructions.
(§2) In another assay for NO, a macrophage cell line MHS served as a positive control. Cells were cultured with/without LPS (1 μm/ml), IFN-γ (200 u/ml), or in combination for 24 hours. Culture supernatants were analyzed for NO content by Griess reaction assay (as mentioned herein).

[2] = system: HT29 cells; assay: as above; details: agent alone; LPS (1 μm/ml), IFN-γ (200 u/ml); 24 hours; culture supernatants
Protocol: as §1, §2

[3] = system: HIPEC monolayers; assay: Inulin permeability of HIPEC monolayers grown on TransWell filters, with or without pro-inflammatory cytokines; details: cytokine treatment 24 hrs, 3H-labeled Inulin, +/- standard error
Protocol: Intestinal stem cell derived primary epithelial cell mono layers were tested for Inulin permeability.
Confluent monolayers of HIPEC cells were grown on transwell membranes in triplicates. Cells were then treated with or without pro-inflammatory cytokines for 24 hrs. ^3H-labeled Inulin was added to the upper chamber. Aliquots of medium retrieved from the upper and lower chambers were counted.
The % amount of inulin activity transported from the upper to the lower chamber was determined. The results are shown in Table 5 below, along with the standard error.

[4] = system: HIPEC line (A2J1); assay: Response to inflammatory mediators, IL-8 read-out; details: stimulators at various concentrations
Protocol: Using both IL-8 and MIP-3α read-out procedures, an HIPEC line of the present invention (A2J1) was tested for response to various inflammatory mediators (stimulators). The HIPEC line was compared to a Caco-2 cell line. The following stimulators were used at various concentrations: IL-1β; TNFα; IFNγ; Pam3CSK4 (TLR2); LPS (TLR4); and Flagellin (TLR5).

[5] = system: HIPEC line A2J1; assay: qPCR of markers for mature phenotype cells in HIPEC line upon cytokine stimulation; details: 1 ng/ml IL-1b or 25 ng/ml TNFα (24 hrs)
Protocol: Using qPCR, the HIPEC line was also tested for various markers for mature phenotype cells, including the following cell subtypes: enteroendocrine; Goblet; Paneth; and enterocyte. The following markers were used, with the corresponding cell subtypes in parentheses: Somatostatin (enteroendocrine); Glucagon (enteroendocrine); Lysozyme (Goblet/Paneth); Defensin 5 (Goblet/Paneth); Trefoil factor 3 (Goblet/Paneth); Mucin 2 (Goblet/Paneth); Sucrose isomaltase (enterocyte); Carbonic anhydrase (enterocyte); Cd×2 promoter (enterocyte); and Guanylate cyclase c (enterocyte). Data from these tests supported a Goblet/secretory differentiation profile for the HIPEC line identified as A2J1 (derived from jejunem tissue).

[6] = system: TLR2; assay: Regulation of TLR expression by LPS on hGISC-derived primary epithelial cell line (FIG. 18); details: LPS stimulation of HIPEC line, preliminary experiment
[7] = system: TLR6; assay: as above; details: LPS stimulation of HIPEC line, preliminary experiment
[8] = system: TLR4; assay: as above; details: LPS stimulation of HIPEC line, preliminary experiment
[9] = Experiment #1, Medium Only 35.5% +/− 5.3
[10] = Experiment #2, Medium Only 41.6% +/− 0.96
[11] = Experiment #3, Medium Only 43.6% +/− 1.16

Molecule	NO production [1]	NO production [2]	% amount of inulin activity transported from the upper to the lower chamber [3, 9]	% amount of inulin activity transported from the upper to the lower chamber [3, 10]	% amount of inulin activity transported from the upper to the lower chamber [3, 11]	IL-8 response [4]	change in phenotype upon stimulation [5]	TLR2 expression [6]	TLR6 expression [7]	TLR4 expression [8]
IFN-γ: interferon; adaptive immunostimulatory agent	neither LPS nor IFN-γ alone affect NO production	neither LPS nor IFN-γ alone affect NO production	36.0% +/− 2.8	42.6% +/− 2.07	42.7% +/− 0.30	responsive	–	–	–	–
IL-1β: pro-inflammatory cytokine; interleukin	–	–	43.5% +/− 1.36	50.4% +/− 0.94	54.0% +/− 1.59	responsive	no change in phenotype	–	–	–
IL-6: pro-inflammatory cytokine	–	–	36.5% +/− 0.48	41.8% +/− 0.59	–	–	–	–	–	–
lipopolysaccharide [LPS]	neither LPS nor IFN-γ alone affect NO production	neither LPS nor IFN-γ alone affect NO production	–	–	–	–	–	upregulated	upregulated	upregulated
tumor necrosis factor alpha [TNF-α]	–	–	41.2% +/− 0.66	46.6% +/− 1.05	49.0% +/− 1.95	responsive	no change in phenotype	–	–	–
IL-1α: pro-inflammatory cytokine (protein, UniProt P01583 113-271, looked up) Interleukin-1 alpha: SAPFSFLSNVKYNFMRIIKYEFILNDALNQSIIRANDQYLTAAALHNLDEAVKFDMGAYKSSKDDAKITVILRISKTQLYVTAQDEDQPVLLKEMPEIPKTITGSETNLLFFWETHGTKNYFTSVAHPNLFIATKQDYWVCLAGGPPSITDFQILENQA	–	–	40.0% +/− 3.6	47.4% +/− 0.59	50.7% +/− 0.40	–	–	–	–	–
